From patent US20050003449A1, “Method for determining molecular affinities for human serum albumin” (priority 2003, published 2005)

What was measured:
HSA (V) = biological target: T1, HSA (V) (Homo sapiens, UniProt P02768); experiment: Isothermal titration calorimetry of the probe with HSA; assay type: binding; settings: ITC, PBS
T1 construct: Human serum albumin, fraction V, with a purity ≧95% as indicated by cellulose acetate electrophoresis; purchased Calbiochem 12666
Procedure: The bottom plot represents the isothermal titrating calorimetry results integrated enthalpies and least-squares curve fit for the probe interaction with HSA (V) in PBS.
Isothermal titration calorimetry experiments were performed using an OMEGA titrating microcalorimeter from Microcal, Inc. (Northampton, Mass.). Data collection, analysis, and plotting were performed using a Windows-based software package (Origin 5.0) supplied by the instrument vendor. The titrating microcalorimeter consisted of a sample and reference cell held in an adiabatic enclosure. The calorimeter was calibrated by comparing the measured areas of applied heat pulses to known values. Known and experimentally measured values agreed to within 2%.
The probe was prepared in DMSO at 10 mM and diluted to 500 μM in PBS. the probe and HSA solutions were degassed prior to analysis. The reference cell was filled with PBS. A 20 μM solution of HSA in PBS was placed in the 1.37 mL sample cell and the probe (0.5 mM) was held in a 250 μL syringe. Thirty injections (6 μL each) of the probe were made by a computer-controlled stepper motor into the sample cell filled with HSA held at 37° C. The syringe stir rate was 400 rpm. The heat adsorbed or released with each injection was measured by a thermoelectric device connected to a Microcal nanovolt preamplifier. Titration isotherms for the binding interactions were comprised of the differential heat flow for each injection. Heats of dilution obtained by injecting ligand into dialysate buffer were minor but were subtracted prior to fitting the data. Isotherms fit well to a single site model (Wiseman, T., et. al. Anal. Biochem (1989) 179, 131-137) using an iterative nonlinear least-squares algorithm included with the instrument.
All parameters were floated during the iterations until a minimum %^2 was obtained between experimental and fit data. […] The change in free energy (ΔG) and change in entropy (ΔS) were determined using the Gibbs' free energy equation. […]

HSA (fraction V) = HSA (fraction V) (Homo sapiens, UniProt P02768); experiment: biochemical

- enthalpy change for the interaction (HSA (V)): -10.4 kcal/M
- Kd (HSA (V); read-out: average affinity for all binding interactions): 15 µM
- molecules of the probe bound per HSA (stoichiometry) (HSA (V); single-site model): approximately 2
- Kd (HSA (fraction V)): 0.39 µM
Structure (SMILES): Cn1c(/C=C/c2ccc(C#N)cc2C(=O)O)cc2ccccc21 [the probe, 5-cyano-2-[(E)-2-(1-methyl-1H-indol-2-yl)ethenyl]benzoic acid]
